What was measured:
A549/ATCC = assay: NCI-60 SRB screen; assay type: cell-based, human; details: Homo sapiens, single dose 10^−5 M, Non-small cell lung carcinoma, read-out: Growth inhibition (%)
HCT-116 = assay: NCI-60 SRB screen; assay type: cell-based, human; details: Homo sapiens; single dose 10^−5 M; HCT-116, Colon cancer; read-out: Growth inhibition (%)
MOLT-4 = assay: NCI-60 SRB screen; assay type: cell-based; details: Homo sapiens; single dose 10^−5 M; MOLT-4, Leukaemia; read-out: Growth inhibition (%)
UO-31 = assay: NCI-60 SRB screen; assay type: cell-based, human; details: Homo sapiens; single dose 10^−5 M; UO-31, Renal cancer; read-out: Growth inhibition (%)
MDA-MB-435 = assay: NCI-60 SRB screen; assay type: cell-based; details: Homo sapiens, MDA-MB-435, read-out: Growth inhibition (%)
NCI/ADR-RES = assay: NCI-60 SRB screen; assay type: cell-based, human; details: Homo sapiens, single dose 10^−5 M, Ovarian cancer, read-out: Growth inhibition (%)
SK-MEL-28 = assay: NCI-60 SRB screen; assay type: cell-based; details: Homo sapiens; single dose 10^−5 M; SK-MEL-28, Melanoma; read-out: Growth inhibition (%)
HOP-92 = assay: NCI-60 SRB screen; assay type: cell-based, human; details: Homo sapiens; single dose 10^−5 M; HOP-92, Non-small cell lung carcinoma; read-out: Growth inhibition (%)
HT-29 = assay: NCI-60 SRB screen; assay type: cell-based; details: Homo sapiens; single dose 10^−5 M; HT-29, Colon cancer; read-out: Growth inhibition (%)
KM12 = assay: NCI-60 SRB screen; assay type: cell-based, human; details: Homo sapiens; single dose 10^−5 M; KM12, Colon cancer; read-out: Growth inhibition (%)
RXF 393 = assay: NCI-60 SRB screen; assay type: cell-based, human; details: Homo sapiens; single dose 10^−5 M; RXF 393, Renal cancer; read-out: Growth inhibition (%)
NCI-H226 = assay: NCI-60 SRB screen; assay type: cell-based, human; details: Homo sapiens; single dose 10^−5 M; NCI-H226, Non-small cell lung carcinoma; read-out: Growth inhibition (%)
IGROV1 = assay: NCI-60 SRB screen; assay type: cell-based, human; details: Homo sapiens, IGROV-1; single dose 10^−5 M; IGROV1, Ovarian cancer; read-out: Growth inhibition (%)
COLO 205 = assay: NCI-60 SRB screen; assay type: cell-based, human; details: Homo sapiens; single dose 10^−5 M; COLO 205, Colon cancer; read-out: Growth inhibition (%)
SF-268 = assay: NCI-60 SRB screen; assay type: cell-based, human; details: Homo sapiens; single dose 10^−5 M; SF-268, CNS cancer; read-out: Growth inhibition (%)
SK-OV-3 = assay: NCI-60 SRB screen; assay type: cell-based, human; details: Homo sapiens; single dose 10^−5 M; SK-OV-3, Ovarian cancer; read-out: Growth inhibition (%)
ACHN = assay: NCI-60 SRB screen; assay type: cell-based; details: Homo sapiens, single dose 10^−5 M, Renal cancer, read-out: Growth inhibition (%)
NCI-H23 = assay: NCI-60 SRB screen; assay type: cell-based, human; details: Homo sapiens; single dose 10^−5 M; NCI-H23, Non-small cell lung carcinoma; read-out: Growth inhibition (%)
OVCAR-8 = assay: NCI-60 SRB screen; assay type: cell-based, human; details: Homo sapiens; single dose 10^−5 M; OVCAR-8, Ovarian cancer; read-out: Growth inhibition (%)
SR = assay: NCI-60 SRB screen; assay type: cell-based; details: Homo sapiens, single dose 10^−5 M, Leukaemia, read-out: Growth inhibition (%)
EKVX = assay: NCI-60 SRB screen; assay type: cell-based, human; details: Homo sapiens, single dose 10^−5 M, Non-small cell lung carcinoma, read-out: Growth inhibition (%)
HOP-62 = assay: NCI-60 SRB screen; assay type: cell-based, human; details: Homo sapiens; single dose 10^−5 M; HOP-62, Non-small cell lung carcinoma; read-out: Growth inhibition (%)
NCI-H522 = assay: NCI-60 SRB screen; assay type: cell-based, human; details: Homo sapiens; single dose 10^−5 M; NCI-H522, Non-small cell lung carcinoma; read-out: Growth inhibition (%)
HCC-2998 = assay: NCI-60 SRB screen; assay type: cell-based, human; details: Homo sapiens; single dose 10^−5 M; HCC-2998, Colon cancer; read-out: Growth inhibition (%)
MALME-3M = assay: NCI-60 SRB screen; assay type: cell-based, human; details: Homo sapiens, single dose 10^−5 M, Melanoma, read-out: Growth inhibition (%)
CCRF-CEM = assay: NCI-60 SRB screen; assay type: cell-based; details: Homo sapiens, single dose 10^−5 M, Leukaemia, read-out: Growth inhibition (%)
SK-MEL-5 = assay: NCI-60 SRB screen; assay type: cell-based, human; details: Homo sapiens; single dose 10^−5 M; SK-MEL-5, Melanoma; read-out: Growth inhibition (%)
OVCAR-4 = assay: NCI-60 SRB screen; assay type: cell-based, human; details: Homo sapiens; single dose 10^−5 M; OVCAR-4, Ovarian cancer; read-out: Growth inhibition (%)
SW-620 = assay: NCI-60 SRB screen; assay type: cell-based; details: Homo sapiens; single dose 10^−5 M; SW-620, Colon cancer; read-out: Growth inhibition (%)
[1] = system: panel of 60 cancer cell lines; assay: NCI-60 SRB screen, mean or range over the panel; assay type: cell-based, human; details: Homo sapiens; mean over the cell lines; single dose 10^−5 M; read-out: Mean growth inhibition (%)
SF-295 = assay: NCI-60 SRB screen; assay type: cell-based, human; details: Homo sapiens; single dose 10^−5 M; SF-295, CNS cancer; read-out: Growth inhibition (%)
NCI-H322M = assay: NCI-60 SRB screen; assay type: cell-based, human; details: Homo sapiens, single dose 10^−5 M, Non-small cell lung carcinoma, read-out: Growth inhibition (%)
LOX IMVI = assay: NCI-60 SRB screen; assay type: cell-based, human; details: Homo sapiens, single dose 10^−5 M, Melanoma, read-out: Growth inhibition (%)
M14 = assay: NCI-60 SRB screen; assay type: cell-based, human; details: Homo sapiens; single dose 10^−5 M; M14, Melanoma; read-out: Growth inhibition (%)
SN12C = assay: NCI-60 SRB screen; assay type: cell-based, human; details: Homo sapiens, SN12C; single dose 10^−5 M; SN 12 C, Renal cancer; read-out: Growth inhibition (%)
SK-MEL-2 = assay: NCI-60 SRB screen; assay type: cell-based, human; details: Homo sapiens; single dose 10^−5 M; SK-MEL-2, Melanoma; read-out: Growth inhibition (%)
UACC-62 = assay: NCI-60 SRB screen; assay type: cell-based, human; details: Homo sapiens; single dose 10^−5 M; UACC-62, Melanoma; read-out: Growth inhibition (%)
OVCAR-3 = assay: NCI-60 SRB screen; assay type: cell-based, human; details: Homo sapiens; single dose 10^−5 M; OVCAR-3, Ovarian cancer; read-out: Growth inhibition (%)
HL-60(TB) = assay: NCI-60 SRB screen; assay type: cell-based, human; details: Homo sapiens; single dose 10^−5 M; HL-60(TB), Leukaemia; read-out: Growth inhibition (%)
HCT-15 = assay: NCI-60 SRB screen; assay type: cell-based, human; details: Homo sapiens; single dose 10^−5 M; HCT-15, Colon cancer; read-out: Growth inhibition (%)
TK-10 = assay: NCI-60 SRB screen; assay type: cell-based, human; details: Homo sapiens; single dose 10^−5 M; TK-10, Renal cancer; read-out: Growth inhibition (%)
K-562 = assay: NCI-60 SRB screen; assay type: cell-based, human; details: Homo sapiens, K562; single dose 10^−5 M; K-562, Leukaemia; read-out: Growth inhibition (%)
CAKI-1 = assay: NCI-60 SRB screen; assay type: cell-based, human; details: Homo sapiens; single dose 10^−5 M; CAKI-1, Renal cancer; read-out: Growth inhibition (%)
NCI-H460 = assay: NCI-60 SRB screen; assay type: cell-based, human; details: Homo sapiens; single dose 10^−5 M; NCI-H460, Non-small cell lung carcinoma; read-out: Growth inhibition (%)

## N#CC1=C(Cl)NC(c2cccc([N+](=O)[O-])c2)c2sc3c(F)cccc3c21 (centres unmarked) [Compound 7b, 3-Chloro-4-cyano-8-fluoro-1-(3-nitrophenyl)-1,2-dihydro[1]benzothieno [2,3-c]pyridine]
A549/ATCC
  inhibition at 10 µM: -10.1%
HCT-116
  inhibition at 10 µM: 11.7%
MOLT-4
  inhibition at 10 µM: 7.93%
UO-31
  inhibition at 10 µM: 32.5%
MDA-MB-435
  inhibition at 10 µM: -8.18%
NCI/ADR-RES
  inhibition at 10 µM: 1.73%
SK-MEL-28
  inhibition at 10 µM: -11.2%
HOP-92
  inhibition at 10 µM: 10.4%
HT-29
  inhibition at 10 µM: -3.29%
KM12
  inhibition at 10 µM: -0.12%
RXF 393
  inhibition at 10 µM: -15.8%
NCI-H226
  inhibition at 10 µM: 9.35%
IGROV1
  inhibition at 10 µM: 15.6%
COLO 205
  inhibition at 10 µM: -14.6%
SF-268
  inhibition at 10 µM: 6.82%
SK-OV-3
  inhibition at 10 µM: 2.24%
ACHN
  inhibition at 10 µM: 4.44%
NCI-H23
  inhibition at 10 µM: 4.25%
OVCAR-8
  inhibition at 10 µM: -4.49%
SR
  inhibition at 10 µM: 15.9%
EKVX
  inhibition at 10 µM: -1.36%
HOP-62
  inhibition at 10 µM: 9.67%
NCI-H522
  inhibition at 10 µM: -1.38%
HCC-2998
  inhibition at 10 µM: -18.2%
MALME-3M
  inhibition at 10 µM: -2.31%
CCRF-CEM
  inhibition at 10 µM: 3.22%
SK-MEL-5
  inhibition at 10 µM: -20.1%
OVCAR-4
  inhibition at 10 µM: -3.81%
SW-620
  inhibition at 10 µM: 3.78%
[1]
  inhibition at 10 µM: 2.14%
SF-295
  inhibition at 10 µM: -4.69%
NCI-H322M
  inhibition at 10 µM: -3.17%
LOX IMVI
  inhibition at 10 µM: 1.46%
M14
  inhibition at 10 µM: -5.17%
SN12C
  inhibition at 10 µM: 4.43%
SK-MEL-2
  inhibition at 10 µM: -2.07%
UACC-62
  inhibition at 10 µM: 8.84%
OVCAR-3
  inhibition at 10 µM: -1.67%
HL-60(TB)
  inhibition at 10 µM: 1.47%
HCT-15
  inhibition at 10 µM: -7.25%
TK-10
  inhibition at 10 µM: -53.8%
K-562
  inhibition at 10 µM: 8.8%
CAKI-1
  inhibition at 10 µM: 19.8%
NCI-H460
  inhibition at 10 µM: 2.14%
